Measurements taken from ChEMBL document CHEMBL3390836, “Mannich- and LedererManasse-based analogues of the natural product S-(+)-curcuphenol as cancer proliferation and migration inhibitors” (Medchemcomm, 2012).

Assays:
Format in all cases: functional
SF-268 = experiment: Cytotoxicity against human SF268 cells after 48 hrs by SRB assay; settings: SF-268, 48 h
SNB-75 = experiment: Cytotoxicity against human SNB75 cells assessed as cell growth at 10^-4 M after 48 hrs by SRB assay relative to control; settings: SNB-75, 48 h, read-out: Activity
TK-10 = experiment: Cytotoxicity against human TK10 cells after 48 hrs by SRB assay; settings: TK-10, 48 h
NCI-H322M = experiment: Cytotoxicity against human NCI-H322M cells assessed as cell growth at 10^-7 M after 48 hrs by SRB assay relative to control; settings: read-out: Activity
SN12C [1] = experiment: Cytotoxicity against human SN12C cells after 48 hrs by SRB assay
U-251 = experiment: Cytotoxicity against human U251 cells after 48 hrs by SRB assay; settings: U-251, 48 h
[2] = Cytotoxicity against human OVCAR3 cells after 48 hrs by SRB assay; settings: OVCAR-3, 48 h
A498 [3] = experiment: Cytotoxicity against human A498 cells assessed as cell growth at 10^-7 M after 48 hrs by SRB assay relative to control; settings: A498, 48 h, read-out: Activity
COLO 205 = experiment: Cytotoxicity against human COLO205 cells assessed as cell growth at 10^-7 M after 48 hrs by SRB assay relative to control; settings: COLO 205, 48 h, read-out: Activity
[4] = Cytotoxicity against human OVCAR3 cells assessed as cell growth at 10^-4 M after 48 hrs by SRB assay relative to control; settings: OVCAR-3, 48 h, read-out: Activity
ACHN [5] = experiment: Cytotoxicity against human ACHN cells assessed as cell growth at 10^-4 M after 48 hrs by SRB assay relative to control; settings: read-out: Activity
HCC 2998 = experiment: Cytotoxicity against human HCC2998 cells assessed as cell growth at 10^-4 M after 48 hrs by SRB assay relative to control; settings: HCC 2998, 48 h, read-out: Activity
SF-295 [6] = experiment: Cytotoxicity against human SF295 cells assessed as cell growth at 10^-4 M after 48 hrs by SRB assay relative to control; settings: SF-295, 48 h, read-out: Activity
K562 = experiment: Cytotoxicity against human K562 cells assessed as cell growth at 10^-8 M after 48 hrs by SRB assay relative to control; settings: K562, 48 h, read-out: Activity
SN12C [7] = experiment: Cytotoxicity against human SN12C cells assessed as cell growth at 10^-4 M after 48 hrs by SRB assay relative to control; settings: read-out: Activity
MCF7 = experiment: Cytotoxicity against human MCF7 cells assessed as cell growth at 10^-7 M after 48 hrs by SRB assay relative to control; settings: MCF7, 48 h, read-out: Activity
HL-60(TB) = experiment: Cytotoxicity against human HL-60(TB) cells after 48 hrs by SRB assay; settings: HL-60, 48 h
786-0 = experiment: Cytotoxicity against human 786-0 cells after 48 hrs by SRB assay; settings: 786-0, 48 h
[8] = Cytotoxicity against human OVCAR4 cells assessed as cell growth at 10^-7 M after 48 hrs by SRB assay relative to control; settings: OVCAR-4, 48 h, read-out: Activity
RXF 393 = experiment: Cytotoxicity against human RXF393 cells assessed as cell growth at 10^-4 M after 48 hrs by SRB assay relative to control; settings: RXF 393, 48 h, read-out: Activity
SF-295 [9] = experiment: Cytotoxicity against human SF295 cells assessed as cell growth at 10^-8 M after 48 hrs by SRB assay relative to control; settings: SF-295, 48 h, read-out: Activity
[10] = Cytotoxicity against human SKOV3 cells after 48 hrs by SRB assay; settings: SK-OV-3, 48 h
ACHN [11] = experiment: Cytotoxicity against human ACHN cells assessed as cell growth at 10^-8 M after 48 hrs by SRB assay relative to control; settings: read-out: Activity
MOLT-4 [12] = experiment: Cytotoxicity against human MOLT4 cells after 48 hrs by SRB assay; settings: MOLT-4, 48 h
NCI-H226 = experiment: Cytotoxicity against human NCI-H226 cells assessed as cell growth at 10^-6 M after 48 hrs by SRB assay relative to control; settings: NCI-H226, 48 h, read-out: Activity
T47D = experiment: Cytotoxicity against human T47D cells assessed as cell growth at 10^-8 M after 48 hrs by SRB assay relative to control; settings: read-out: Activity
IGROV-1 [13] = experiment: Cytotoxicity against human IGROV1 cells assessed as cell growth at 10^-6 M after 48 hrs by SRB assay relative to control; settings: IGROV-1, 48 h, read-out: Activity
SW-620 = experiment: Cytotoxicity against human SW620 cells assessed as cell growth at 10^-4 M after 48 hrs by SRB assay relative to control; settings: SW-620, 48 h, read-out: Activity
SF-295 [14] = experiment: Cytotoxicity against human SF295 cells assessed as cell growth at 10^-6 M after 48 hrs by SRB assay relative to control; settings: SF-295, 48 h, read-out: Activity
A498 [15] = experiment: Cytotoxicity against human A498 cells assessed as cell growth at 10^-6 M after 48 hrs by SRB assay relative to control; settings: A498, 48 h, read-out: Activity
HOP-62 = experiment: Cytotoxicity against human HOP62 cells assessed as cell growth at 10^-4 M after 48 hrs by SRB assay relative to control; settings: HOP-62, 48 h, read-out: Activity
MOLT-4 [16] = experiment: Cytotoxicity against human MOLT4 cells assessed as cell growth at 10^-7 M after 48 hrs by SRB assay relative to control; settings: MOLT-4, 48 h, read-out: Activity
[17] = Cytotoxicity against human Hs 578T cells assessed as cell growth at 10^-8 M after 48 hrs by SRB assay relative to control; settings: read-out: Activity
[18] = Cytotoxicity against human HCT116 cells after 48 hrs by SRB assay; settings: HCT-116, 48 h
IGROV-1 [19] = experiment: Cytotoxicity against human IGROV1 cells assessed as cell growth at 10^-4 M after 48 hrs by SRB assay relative to control; settings: IGROV-1, 48 h, read-out: Activity
IGROV-1 [20] = experiment: Cytotoxicity against human IGROV1 cells after 48 hrs by SRB assay; settings: IGROV-1, 48 h
NCI-H460 = experiment: Cytotoxicity against human NCI-H460 cells after 48 hrs by SRB assay; settings: NCI-H460, 48 h
[21] = read-out: LC50 (the source's name)

`COc1ccc(CCN2COc3c([C@@H](C)CCC=C(C)C)ccc(C)c3C2)cc1OC` showed a GI50 (SF-268) of 1.45 µM, a TGI (SF-268) of 4.34 µM and a CC50 (SF-268; [21]) of 17.3 µM. The growth at 100 µM (SNB-75) was -50%, the GI50 (TK-10) was 2.19 µM and the LC50 (TK-10) was 24.6 µM. The TGI (TK-10) was 5.95 µM, the growth at 0.1 µM (NCI-H322M) was 95% and the GI50 (SN12C [1]) was 3.27 µM. The LC50 (SN12C [1]) was 36.8 µM, the TGI (SN12C [1]) was 13.5 µM and the GI50 (U-251) was 1.91 µM. For the same compound, the LC50 (U-251) was 11.2 µM, the TGI (U-251) was 4.47 µM and the GI50 [2] was 3.55 µM. For the same compound, the LC50 [2] was 40.1 µM, the TGI [2] was 14.1 µM and the growth at 0.1 µM (A498 [3]) was 97%. For the same compound, the growth at 0.1 µM (COLO 205) was 103%, the growth at 100 µM [4] was -94% and the growth at 100 µM (ACHN [5]) was -92%. For the same compound, the growth at 100 µM (HCC 2998) was -100%, the growth at 100 µM (SF-295 [6]) was -87% and the growth at 0.01 µM (K562) was 102%. The growth at 100 µM (SN12C [7]) was -100%, the growth at 0.1 µM (MCF7) was 90% and the GI50 (HL-60(TB)) was 4.11 µM. For the same compound, the TGI (HL-60(TB)) was 60.9 µM, the CC50 (HL-60(TB); [21]) was greater than 100 µM and the LC50 (786-0) was 8.72 µM. The growth at 0.1 µM [8] was 90%, the growth at 100 µM (RXF 393) was -92% and the growth at 0.01 µM (SF-295 [9]) was 81%. For the same compound, the GI50 [10] was 11.8 µM, the LC50 (concentration killing 50% of cells) [10] was 81.8 µM and the TGI [10] was 31.1 µM. The growth at 0.01 µM (ACHN [11]) was 95%, the GI50 (MOLT-4 [12]) was 3.69 µM and the LC50 (MOLT-4 [12]) was greater than 100 µM. It also gave a TGI (MOLT-4 [12]) greater than 100 µM, a growth at 1 µM (NCI-H226) of 94% and a growth at 0.01 µM (T47D) of 88%. It also gave a growth at 1 µM (IGROV-1 [13]) of 53%, a growth at 100 µM (SW-620) of -86% and a growth at 1 µM (SF-295 [14]) of 80%. It also gave a growth at 1 µM (A498 [15]) of 68%, a growth at 100 µM (HOP-62) of 100% and a growth at 0.1 µM (MOLT-4 [16]) of 89%. The growth at 0.01 µM [17] was 78%, the GI50 [18] was 2.17 µM and the TGI [18] was 4.94 µM. It also gave a CC50 [18, 21] of 13.3 µM, a growth at 100 µM (IGROV-1 [19]) of -99% and a GI50 (IGROV-1 [20]) of 1.08 µM. For the same compound, the LC50 (concentration killing 50% of cells) (IGROV-1 [20]) was 12.7 µM, the TGI (IGROV-1 [20]) was 3.52 µM and the GI50 (NCI-H460) was 2.06 µM. The TGI (NCI-H460) was 4.3 µM and the CC50 (NCI-H460; [21]) was 8.95 µM.
